Measurements reported in patent publication US20240108702A1, “Use Of Naturally Occurring Cyclic Peptides For Treatment Of SARS-COV-2 Infection” (The University of Southern California, priority 2021, published 2024).
Where a SMILES comes first, the peptide text is derived from it. Bridges are numbered along the chain shown (N, C = ends).

Assay: in vivo
Details: both, cynomolgus monkey; for AUC(0-inf) / AUC / clearance / Cmax / MRT inf / Vd: iv, cynomolgus; for AUC(0-inf): AUC0-∞; for AUC: AUCτ; for clearance: CL; for MRT inf: MRTinf; for Vd: Vss
[1] = 0.3 mg/kg, 0.3 mg/kg i.v., Day 1, mean
[2] = 1 mg/kg, 1 mg/kg i.v., Day 1, mean
[3] = 3 mg/kg, 3 mg/kg i.v., Day 1, mean
[4] = 5 mg/kg, 5 mg/kg i.v., Day 1, mean
[5] = 5 mg/kg/day, 5 mg/kg/day i.v., Day 10, mean
[6] = 10 mg/kg, 10 mg/kg i.v., Day 1, mean
[7] = 10 mg/kg/day, 10 mg/kg/day i.v., Day 10, mean
[8] = 15 mg/kg, 15 mg/kg i.v., Day 1, mean
[9] = 15 mg/kg/day, 15 mg/kg/day i.v., Day 4, mean
[10] = 15 mg/kg/day, 15 mg/kg/day i.v., Day 7, mean
[11] = 15 mg/kg/day, 15 mg/kg/day i.v., Day 10, mean

SMILES: CC[C@H](C)[C@@H]1NC(=O)[C@@H]2CSSC[C@H](NC(=O)[C@H](CCCNC(=N)N)NC(=O)[C@@H]3CSSC[C@H](NC1=O)C(=O)N[C@@H]([C@@H](C)O)C(=O)N[C@@H](CCCNC(=N)N)C(=O)NCC(=O)N[C@@H](Cc1ccccc1)C(=O)N3)C(=O)N[C@@H](CC(C)C)C(=O)N[C@H]1CSSC[C@H](NC(=O)[C@H](C(C)C)NC(=O)CNC(=O)[C@H](CCCNC(=N)N)NC(=O)[C@H](CCCNC(=N)N)NC1=O)C(=O)N[C@@H](CCCNC(=N)N)C(=O)N2 [Peptide 1] (cyclo(GFCRCLCRRGVCRCICTR); disulfide 3-16, 5-14, 7-12)
- half-life: 9.53 h
- half-life (15 mg/kg): 47.2 h
- AUC(0-inf) [1]: 617 ng·h/mL
- AUC [1]: 591 ng·h/mL
- clearance [1]: 8.3 mL/min/kg
- Cmax [1]: 582 ng/mL
- MRT inf [1]: 1.24 h
- Vd [1]: 0.626 L/kg
- AUC(0-inf) [2]: 3880 ng·h/mL
- AUC [2]: 3820 ng·h/mL
- clearance [2]: 4.43 mL/min/kg
- Cmax [2]: 2560 ng/mL
- MRT inf [2]: 1.82 h
- Vd [2]: 0.486 L/kg
- AUC(0-inf) [3]: 10700 ng·h/mL
- AUC [3]: 10300 ng·h/mL
- clearance [3]: 4.78 mL/min/kg
- Cmax [3]: 4750 ng/mL
- MRT inf [3]: 4.3 h
- Vd [3]: 1.22 L/kg
- AUC(0-inf) [4]: 27200 ng·h/mL
- AUC [4]: 27200 ng·h/mL
- clearance [4]: 3.13 mL/min/kg
- Cmax [4]: 10700 ng/mL
- MRT inf [4]: 2.94 h
- Vd [4]: 0.55 L/kg
- AUC(0-inf) [5]: 40000 ng·h/mL
- AUC [5]: 38900 ng·h/mL
- clearance [5]: 2.27 mL/min/kg
- Cmax [5]: 11700 ng/mL
- MRT inf [5]: 4.84 h
- Vd [5]: 0.645 L/kg
- AUC(0-inf) [6]: 76800 ng·h/mL
- AUC [6]: 76100 ng·h/mL
- clearance [6]: 2.38 mL/min/kg
- Cmax [6]: 26700 ng/mL
- MRT inf [6]: 4.4 h
- Vd [6]: 0.629 L/kg
- AUC(0-inf) [7]: 125000 ng·h/mL
- AUC [7]: 118000 ng·h/mL
- clearance [7]: 1.48 mL/min/kg
- Cmax [7]: 27300 ng/mL
- MRT inf [7]: 7.2 h
- Vd [7]: 0.624 L/kg
- AUC(0-inf) [8]: 142000 ng·h/mL
- AUC [8]: 138000 ng·h/mL
- clearance [8]: 1.9 mL/min/kg
- Cmax [8]: 46500 ng/mL
- MRT inf [8]: 5.48 h
- Vd [8]: 0.629 L/kg
- AUC(0-inf) [9]: 167000 ng·h/mL
- AUC(0-inf) [10]: 188000 ng·h/mL
- AUC(0-inf) [11]: 213000 ng·h/mL
- AUC [9]: 140000 ng·h/mL
- AUC [10]: 154000 ng·h/mL
- AUC [11]: 173000 ng·h/mL
- clearance [9]: 1.78 mL/min/kg
- clearance [10]: 1.63 mL/min/kg
- clearance [11]: 1.72 mL/min/kg
- Cmax [9]: 31100 ng/mL
- Cmax [10]: 32800 ng/mL
- Cmax [11]: 32200 ng/mL
- MRT inf [9]: 11.8 h
- MRT inf [10]: 12.3 h
- MRT inf [11]: 12 h
- Vd [9]: 1.26 L/kg
- Vd [10]: 1.19 L/kg
- Vd [11]: 1.14 L/kg
